Assay results taken from patent US10487056B2, “Small molecule androgen receptor inhibitors and methods of use thereof” (GEORGETOWN UNIVERSITY, priority 2015, dated 2019).

What was measured:
Type in all cases: cell-based
[1] = system: AR; assay: Immunofluorescence staining of AR in 22Rv1-MDVR cells; details: MDV3100 10 μM, ARN509 10 μM or SH-I-125 1 μM, 24 hours
Protocol: […]. AR and AR-V7 expression levels were assessed.
(§1) Immunofluorescence staining was performed as described in Amin et al., Mol. Cancer Ther., 13:341-52 (2014).

[2] = system: VP16-Gal4DBD fusion protein; assay: VP16-Gal4DBD / UAS-luc reporter, negative control; details: SH-I-125 1 μM, 24 hours
Protocol: 22Rv1 cells were co-transfected with VP16 activation domain-Gal4DBD fusion protein and Gal4UAS-TATA-luciferase reporter and treated with SH-I-125 (1 μM) for 24 hours. Luciferase activity was measured and normalized with Renilla luciferase. Columns, mean of three independent experiments with quadruplicate samples; bars, SEM.
The N-terminal domain of the AR (AR NTD) is known to be its transactivation domain, essential for ligand-independent AR activation. Mahanine is able to inhibit AR activation induced by ligand-independent mechanisms such as forskolin and interleukin-6, which activate the AR NTD. […] As a negative control, a constitutively active VP16-Gal4DBD fusion protein and the UAS-luc reporter were co-expressed in […]. […] […].

[3] = system: 22Rv1-MDVR cells; assay: Caspase-Glo 3/7 activity assay, 22Rv1-MDVR cells; details: SH-I-125 1 μM, 3 days
Protocol: Caspase 3/7 activity was measured using Caspase-Glo 3/7 substrates. Data represent mean of three independent experiments with quadruplicate samples; bars, SEM.
The emergence of resistance to clinical anti-androgens is an ongoing problem in the treatment of castration-resistant prostate cancer.

[4] = system: 22Rv1 cells; assay: Live and dead cell staining, 22Rv1 cells; details: SH-I-125 1 μM, 3 days
Protocol: Live and dead cells were determined using a Cell Viability/Cytotoxicity Assay kit (Biotium Inc.; Hayward, Calif.).
To determine the effects of SH-I-125 on prostate cancer cell growth, 22Rv1 cells were treated with SH-I-125 and cell viability was measured after a period of 3 days. […]. In comparison, non-tumorigenic primary prostate epithelial cells (PrEC) retained 80% viability in the presence of a similar range of doses of SH-I-125, showing that tumorigenic cells are more susceptible to the growth inhibitory properties of SH-I-125 compared to non-tumorigenic cells (FIG. 8B). […] Staurosporine was used as a positive control for cell death induction in live and dead assays (FIG. 9C).

[5] = target: T1, AR NTD-Gal4DBD fusion protein (Homo sapiens, UniProt P10275); assay: AR NTD-Gal4DBD / Gal4UAS-luciferase reporter in VCaP cells, forskolin-induced; details: forskolin 50 μM, 24 hours
T1 construct: expressed in transfected cells; host or cells: VCaP
Protocol: VCaP cells were co-transfected with AR-NTD-Gal4DBD expression vector and Gal4UAS-TATA-luciferase reporter construct and optionally treated with forskolin (FSK) (50 μM) for 24 hours.
The N-terminal domain of the AR (AR NTD) is known to be its transactivation domain, essential for ligand-independent AR activation.

[6] = system: estrogen response element; assay: Estrogen response element (ERE) luciferase reporter in 22Rv1 cells; details: 1 μM, 24 hours
Protocol: 22Rv1 cells were transfected with ERE promoter-luciferase reporter construct and Renilla luciferase plasmids (pRL-TK-Luc) and treated with 1 μM of SH-I-125 for 24 hours. Promoter activity was determined after normalization with Renilla luciferase activity. Columns, mean of three independent experiments with quadruplicate samples; bars, SEM.

[7] = system: AR and AR-V7; assay: Western blot of AR and AR-V7 levels in 22Rv1 cells
Protocol: AR levels were assessed by Western blotting. β-actin was used as a loading control.
(§2) AR and AR-V7 levels were assessed. β-actin was used as a loading control.
as §2
MG132 (5 μM), a known proteasome inhibitor, was added on Day 2. AR expression was assessed by Western blotting. β-actin was used as a loading control.

[8] = system: AR and AR-V7; assay: Quantitative RT-PCR of AR and AR-V7 mRNA in 22Rv1 cells; details: SH-I-125 1 μM, 1-3 days, normalized to GAPDH
Protocol: FIG. 12D is a graph showing the mRNA expression of AR and AR-V7 after treating 22Rv1 cells with SH-I-125 (1 μM) for 24 and 72 hrs. The AR and AR-V7 expression levels were assessed by qRTPCR and normalized to GAPDH expression levels.
Quantitative RT-PCR was performed using the protocol and the primers as described in Amin et al., Mol. Cancer Ther., 13:341-52 (2014).
To establish a mechanism by which SH-I-125 caused a decline in AR and AR-V7 levels, the relative expression of AR and AR-V7 in 22Rv1 cells that had been treated with SH-I-125 for a period of 1-3 days was measured. […] To determine whether proteasomal mechanisms are responsible for the decline in AR and AR-V7 levels, 22Rv1 cells were treated with 5 μM SH-I-125 for a period of 48 hours in the presence of proteasome inhibitor, MG132.

[9] = system: AR; assay: Immunofluorescence staining of AR and PSA in VCaP-MDVR cells; details: DHT 1 nM, MDV3100 10 μM or SH-I-125 1 μM, 24 hours
Protocol: AR and PSA expression levels were assessed.
as §1

[10] = system: AR; assay: 22Rv1-MDVR-ARE-luc luciferase reporter assay; details: 22Rv1-MDVR-ARE-luc cells, range of doses, 24 hours
Protocol: […]. Luciferase activity was measured and plotted as a percentage of control. Data represent the mean of three independent experiments with quadruplicate samples; bars, SEM. ***, p value <0.001 determined by ANOVA.
VCaP-MDVR and 22Rv1-MDVR stably expressing ARE-luciferase construct (VCaP-MDVR-ARE-luc and 22Rv1-MDVR-ARE-luc) were generated as described above in the Materials and Methods section. […].

T1 sequence (P10275 with tags, fused parts or gaps limits assumed): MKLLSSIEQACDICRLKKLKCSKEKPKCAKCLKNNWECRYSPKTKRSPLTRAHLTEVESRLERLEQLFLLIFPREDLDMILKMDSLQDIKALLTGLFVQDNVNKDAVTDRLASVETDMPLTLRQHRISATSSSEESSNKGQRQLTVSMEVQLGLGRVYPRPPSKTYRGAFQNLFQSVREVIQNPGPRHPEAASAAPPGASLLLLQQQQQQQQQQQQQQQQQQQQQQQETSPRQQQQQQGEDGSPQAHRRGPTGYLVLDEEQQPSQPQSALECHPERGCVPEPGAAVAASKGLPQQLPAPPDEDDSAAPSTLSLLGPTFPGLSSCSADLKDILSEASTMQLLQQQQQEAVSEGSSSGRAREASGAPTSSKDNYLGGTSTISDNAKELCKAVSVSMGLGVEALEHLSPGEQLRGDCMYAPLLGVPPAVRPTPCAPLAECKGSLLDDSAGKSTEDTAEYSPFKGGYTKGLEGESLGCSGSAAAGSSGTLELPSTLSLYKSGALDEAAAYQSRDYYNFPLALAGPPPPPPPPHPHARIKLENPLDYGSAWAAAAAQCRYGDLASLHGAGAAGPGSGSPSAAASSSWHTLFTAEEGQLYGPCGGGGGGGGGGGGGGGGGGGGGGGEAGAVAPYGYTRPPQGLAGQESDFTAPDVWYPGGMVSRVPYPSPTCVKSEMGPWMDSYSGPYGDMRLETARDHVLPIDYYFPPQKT

COc1ccc2c(c1)[nH]c1c(C)c(OS(=O)(=O)c3cccc4ccccc34)ccc12 [SH-I-125, 7-methoxy-1-methyl-9H-carbazol-2-yl naphthalene-1-sulfonate]
AR nuclear localization [1]: decreased AR nuclear levels
VP16-Gal4DBD luciferase activity [2]: did not affect luciferase activity
caspase 3/7 activation [3]: inducing caspase activation
live and dead cell staining [4]: killed 22Rv1 cells
forskolin-induced AR activation (AR NTD-Gal4DBD luciferase) [5]: significantly inhibited forskolin-induced AR activation
ERE promoter-luciferase activity [6]: unaffected
cellular AR and AR-V7 levels ([7]; 3 days, SH-I-125 at 1 μM): reduced AR and AR-V7 levels
AR and AR splice variant levels in the presence of proteasome inhibitor MG132 ([7]; SH-I-125 plus MG132): Proteasome inhibition rescued the decline
AR and AR-V7 message (mRNA) levels [8]: did not affect the message levels
AR expression / nuclear localization [9]: decreased AR nuclear localization
PSA expression [9]: decreased AR nuclear localization and PSA expression
luciferase activity (AR activity) [10]: retained its inhibitory effect
